# Measured values from patent US7247626B2, “Pyrazolopyrimidine derivatives and pharmaceutical compositions containing them” (SmithKline Beecham Corporation, priority 2002, dated 2007).
# Test system: HSV-1
# Test: HSV-1 infection of Vero 76 cells, viral DNA hybridization capture assay
# Assay type: cell-based
# Settings: Human alphaherpesvirus 1; HSV-1 (MOI=0.001) in Vero 76 cells, 40–48 hours incubation, HSV DNA hybridization with chemiluminescence detection
# Method: Vero 76 cells were maintained in MEM with Earle's salts, L-glutamine, 8% FBS (Hyclone, A-1111-L) and 100 units/mL Penicillin-100 μg/mL Streptomycin. For assay conditions, FBS was reduced to 2%. Cells are seeded into 96-well tissue culture plates at a density of 5×10^4 cells/well after being incubated for 45 min at 37° C. in the presence of HSV-1 or HSV-2 (MOI=0.001). Test compounds are added to the wells and the plates are incubated at 37° C. for 40–48 hours. Cell lysates are prepared as follows: media was removed and replaced with 150 μL/well 0.2 N NaOH with 1% Igepal CA 630 or NP-40. Plates were incubated up to 14 days at room temperature in a humidified chamber to prevent evaporation.
# For the detection probe, a gel-purified, digoxigenin-labeled, […] PCR fragment of the HSV UL-15 sequence was utilized. PCR conditions included 0.5 μM primers, 180 μM dTTP, 20 μM dUTP-digoxigenin (Boehringer Mannheim 1558706), 200 μM each of dATP, dCTP, and dGTP, 1×PCR Buffer II (Perkin Elmer), 2.5 mM, MgCl2, 0.025 units/μL of AmpliTaq Gold polyerase (Perkin Elmer), and 5 ng a gel-purified HSV DNA per 100 μL Extension conditions were 10 min at 95° C., followed by 30 cycles of 95° C. for 1 min, 55° C. for 30 sec, and 72° C. for 2 min. The amplification was completed with a 10-min incubation at 72° C. Primers were selected to amplify a 728 bp probe spanning a section of the HSV1 UL15 open reading frame (nucleotides 249–977). Single-stranded transcripts were purified with Promega M13 Wizard kits. The final product was mixed 1:1 with a mixture of 6 M GuSCN, 100 mM EDTA and 200 μg/mL herring sperm DNA and stored at 4° C.
# The capture DNA plasmid (HSV UL13 region in pUC) was linearized by cutting with Xba I, denatured for 15 min at 95° C. and diluted immediately into Reacti-Bind DNA Coating Solution (Pierce, 17250, diluted 1:1 with TE buffer, pH 8) at 1 ng/μL 75 μl/well were added to Corning (#3922 or 9690) white 96-well plates and incubated at room temperature for at least 4 hrs before washing twice with 300 μL/well 0.2×SSC/0.05% Tween-20 (SSC/T buffer). The plates were then incubated overnight at room temperature with 150 μL/well 0.2 N NaOH, 1% IGEPAL and 10 μg/mL herring sperm DNA.
# Twenty-seven (27) μL of cell lysate was combined with 45 μL of hydridization solution (final concentration: 3M GuSCN, 50 mM EDTA, 100 μg/ml salmon sperm DNA, 5× Denhardt's solution, 0.25× APE, and 5 ng of the digoxigenin-labeled detection probe). APE is 1.5 M NH4-acetate, 0.15 M NH4H2phosphate, and 5 mM EDTA adjusted to pH 6.0. Mineral oil (50 μL) was added to prevent evaporation. The hybridization plates were incubated at 95° C. for 10 minutes to denature the DNA, then incubated at 42° C. overnight. The wells were washed 6× with 300 μL/well SSC/T buffer then incubated with 75 μL/well anti-digoxigenin-HRP-conjugated antibody (Boehringer Mannheim 1207733, 1:5000 in TE) for 30 min at room temperature. The wells were washed 6× with 300 μL/well with PBS/0.05% Tween-20 before 75 μL/well SuperSignal LBA substrate (Pierce) was added. The plates were incubated at room temperature for 30 minutes and chemiluminescence was measured in a Wallac Vietor reader.
# The following results were obtained for HSV-1.
row,IC50,Compound
1,1 µM,"COCCOc1ccc(-c2nn3c(NC4CCCC4)nccc3c2-c2ccnc(NC3CCCC3)n2)cc1 [Example 27, N-Cyclopentyl-3-[2-(cyclopentylamino)pyrimidin-4-yl]-2-[4-(2-methoxyethoxy)phenyl]pyrazolo[1,5-c]pyrimidin-7-amine]"
2,0.5 µM,"CCCOc1ccc(-c2nn3c(NC4CCCC4)nccc3c2-c2ccnc(NC3CCCC3)n2)cc1 [Example 28, N-Cyclopentyl-3-[2-(cyclopentylamino)pyrimidin-4-yl]-2-(4-propoxyphenyl)pyrazolo[1,5-c]pyrimidin-7-amine]"
3,7 µM,"CC(C)(C)Nc1nccc2c(-c3ccnc(NC4CCCC4)n3)c(-c3ccc(F)cc3)nn12 [Example 29, N-(tert-Butyl)-3-[2-(cyclopentylamino)pyrimidin-4-yl]-2-(4-fluorophenyl)pyrazolo[1,5-c]pyrimidin-7-amine]"
4,2 µM,"Fc1ccc(-c2nn3c(N4CCCC4)nccc3c2-c2ccnc(NC3CCCC3)n2)cc1 [Example 30, N-Cyclopentyl-4-[2-(4-fluorophenyl)-7-pyrrolidin-1-ylpyrazolo[1,5-c]pyrimidin-3-yl]pyrimidin-2-amine]"
5,1 µM,"Fc1ccc(-c2nn3c(N4CCCCC4)nccc3c2-c2ccnc(NC3CCCC3)n2)cc1 [Example 31, N-Cyclopentyl-4-[2-(4-fluorophenyl)-7-piperidin-1-ylpyrazolo[1,5-c]pyrimidin-3-yl]pyrimidin-2-amine]"
